Entries after “also recorded” stand apart in the source; their conditions may differ.
Tests used:
Perfringolysin O (PFO) = Perfringolysin O (PFO) (Clostridium perfringens, UniProt P0C2E9); assay: cell-based
wild-type PLY [1] = target: T1, wild-type PLY (Streptococcus pneumoniae, UniProt Q7ZAK5); assay: cell-based; type: cell-based
PLY [2] = target: T2, PLY (Streptococcus pneumoniae, UniProt Q7ZAK5); assay: cell-based; type: cell-based
K562 cells = conditions: 6 µM
[3] = system: Streptococcus pneumoniae (S.pn.) D39Δcps; type: cell-based
perforin = perforin (Homo sapiens, UniProt P14222); type: cell-based
PLY [4] = target: T2, PLY
SARS-CoV2 main protease = SARS-CoV2 main protease (Severe acute respiratory syndrome coronavirus 2, UniProt P0DTD1); type: biochemical
[5] = target: protein tyrosine phosphatase PTP1B (Homo sapiens, UniProt P18031); type: biochemical
wild-type PLY [6] = target: T1, wild-type PLY; assay: biochemical; type: binding

T2 sequence (Q7ZAK5 whole entry, looked up): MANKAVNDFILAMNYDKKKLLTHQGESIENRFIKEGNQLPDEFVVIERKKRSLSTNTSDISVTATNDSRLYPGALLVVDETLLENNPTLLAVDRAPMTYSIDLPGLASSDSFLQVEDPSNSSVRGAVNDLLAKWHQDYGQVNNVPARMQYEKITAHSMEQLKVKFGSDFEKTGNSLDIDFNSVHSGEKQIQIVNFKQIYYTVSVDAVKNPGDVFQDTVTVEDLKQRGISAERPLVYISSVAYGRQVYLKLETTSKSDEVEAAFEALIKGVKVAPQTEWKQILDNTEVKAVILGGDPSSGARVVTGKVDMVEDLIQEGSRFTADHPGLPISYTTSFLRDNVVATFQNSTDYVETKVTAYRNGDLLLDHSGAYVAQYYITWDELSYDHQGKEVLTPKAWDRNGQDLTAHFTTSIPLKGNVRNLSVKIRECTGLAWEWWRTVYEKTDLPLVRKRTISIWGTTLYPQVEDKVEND
T1 sequence (Q7ZAK5 whole entry, looked up): as above
Sequence of perforin (P14222 22-555): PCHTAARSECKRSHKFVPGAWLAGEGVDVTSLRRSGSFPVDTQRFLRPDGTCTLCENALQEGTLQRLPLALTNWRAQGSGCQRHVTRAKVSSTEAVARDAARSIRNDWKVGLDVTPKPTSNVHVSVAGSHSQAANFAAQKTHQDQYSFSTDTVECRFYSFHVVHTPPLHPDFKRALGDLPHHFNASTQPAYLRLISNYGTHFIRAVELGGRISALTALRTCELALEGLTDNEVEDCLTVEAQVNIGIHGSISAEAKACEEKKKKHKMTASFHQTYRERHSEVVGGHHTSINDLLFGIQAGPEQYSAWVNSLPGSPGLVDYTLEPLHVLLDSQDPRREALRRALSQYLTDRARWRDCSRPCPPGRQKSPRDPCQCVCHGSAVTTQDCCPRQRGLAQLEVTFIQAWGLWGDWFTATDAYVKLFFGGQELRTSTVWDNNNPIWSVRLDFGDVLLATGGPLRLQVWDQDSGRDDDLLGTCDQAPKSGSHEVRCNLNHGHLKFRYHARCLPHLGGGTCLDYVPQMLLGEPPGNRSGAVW
Sequence of protein tyrosine phosphatase PTP1B (P18031 whole entry): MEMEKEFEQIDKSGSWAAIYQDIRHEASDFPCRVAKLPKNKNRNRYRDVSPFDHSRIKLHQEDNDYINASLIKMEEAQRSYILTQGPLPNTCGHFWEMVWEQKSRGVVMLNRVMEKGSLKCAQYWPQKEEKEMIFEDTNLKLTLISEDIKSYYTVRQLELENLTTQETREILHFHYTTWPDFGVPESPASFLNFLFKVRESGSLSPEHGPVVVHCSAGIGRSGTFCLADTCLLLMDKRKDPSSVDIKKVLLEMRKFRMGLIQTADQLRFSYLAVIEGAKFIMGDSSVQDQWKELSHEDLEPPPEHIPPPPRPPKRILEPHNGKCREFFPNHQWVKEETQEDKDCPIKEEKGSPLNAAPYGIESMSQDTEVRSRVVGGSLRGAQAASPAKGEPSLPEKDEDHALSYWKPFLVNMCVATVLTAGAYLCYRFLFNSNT
Sequence of Perfringolysin O (PFO) (P0C2E9 29-500 limits assumed): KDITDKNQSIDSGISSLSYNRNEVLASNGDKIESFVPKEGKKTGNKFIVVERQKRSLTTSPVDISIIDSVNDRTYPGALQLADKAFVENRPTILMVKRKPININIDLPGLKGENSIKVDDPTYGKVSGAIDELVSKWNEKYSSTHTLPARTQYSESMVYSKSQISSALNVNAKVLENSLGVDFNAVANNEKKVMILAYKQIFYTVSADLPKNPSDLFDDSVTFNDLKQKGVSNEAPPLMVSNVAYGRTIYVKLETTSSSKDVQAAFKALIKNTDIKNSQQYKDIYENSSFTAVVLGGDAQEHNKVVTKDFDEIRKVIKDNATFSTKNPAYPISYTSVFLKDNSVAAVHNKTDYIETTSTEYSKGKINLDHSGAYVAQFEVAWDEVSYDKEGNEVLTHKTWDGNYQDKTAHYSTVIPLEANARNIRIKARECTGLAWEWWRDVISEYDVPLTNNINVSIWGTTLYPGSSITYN

COc1ccc(C=C2C(=O)NC(=O)NC2=O)cc1COc1ccc(F)cc1F [PB-1]
IC50 (Perfringolysin O (PFO)): 4.6 µM
IC50 (wild-type PLY [1]): 38 ± 6 µM
Inhibition of hemoglobin release, virtual hit screen (wild-type PLY [1]): actively hindering hemoglobin release at all three concentrations; also recorded: displayed inhibition
Inhibition of PLY-induced cellular damage, LDH assay (qualitative) (PLY [2]): significant concentration-dependent inhibition of PLY

Cc1cc(C)cc(N2C(=O)CC(=O)NC2=O)c1 [PB-2.3]
IC50 (95% CI), inhibition of hemolysis by wild-type PLY (wild-type PLY [1]): Inactive
PLY inhibition in the hemolysis assay (qualitative) (wild-type PLY [1]): no inhibitors; also recorded: did not inhibit PLY alone

O=Cc1ccc(-c2ccc(Cl)cc2Cl)o1 [PB-3.1]
PLY inhibition in the hemolysis assay (qualitative) (wild-type PLY [1]): no inhibitors; also recorded: did not inhibit PLY alone

Cc1cc(C)cc(N2C(=O)NC(=O)/C(=C\c3ccc(-c4ccc(Cl)cc4Cl)o3)C2=O)c1 [PB-3]
Cytotoxicity for K562 cells alone (K562 cells): not cytotoxic
Survival of A549 cells infected with D39Δcps [3]: almost entirely survived
duration of activity in the cellular infection assays [3]: about 4 h
Inhibition of lysis of K562 cells by NK cells (perforin): did not inhibit
reduction of median target cell lysis compared to DMSO control (perforin): 15.6%
Effect of inhibitor alone on A549 cells (PLY [4]): harmless to cells
Protection of A549 cells from PLY (microscopy) (PLY [4]): effectively protected cells from PLY-associated cellular damage
Inhibition of SARS-CoV2 main protease (SARS-CoV2 main protease): inactive; also recorded: without detecting inhibition
Inhibition of PTP1B [5]: inactive; also recorded: without detecting inhibition
Kd (wild-type PLY [6]): 0.256 µM
residence time (wild-type PLY [6]): 36.2 min
koff (wild-type PLY [6]; read-out: koff (off-rate)): 0.00046 s⁻¹
kon (wild-type PLY [6]; read-out: kon (on-rate)): 1800 M⁻¹ s⁻¹
Inhibition of PLY-induced cellular damage, LDH assay (qualitative) (PLY [2]): significant concentration-dependent inhibition of PLY
prevented cellular damage (LDH release) (PLY [2]): more than 95%
inhibition at 1 µM (PLY [2]; A549, read-out: inhibition of PLY in cellular experiments at 1 µM): ~20%
inhibition at 6 µM (PLY [2]; A549, read-out: inhibition of PLY in cellular experiments at 6 µM, 6 µM, after 24 h): > 90%
